Data reported in patent US8865901B2, “Gain-of-function Bcl-2 inhibitors” (priority 2009, dated 2014).
Where two headings read alike, the source gives them in different places.

Key:
[1] = test system: TAMH cells overexpressing Bcl-xL (TAMH-Bcl-xL, Tabx2s); assay: Cytotoxicity / apoptosis induction in TAMH cells overexpressing Bcl-xL; format: cell-based
Protocol: (§1) To examine the sensitivity of cells over-expressing Bcl-xL to various mitochondrial inhibitors and apoptosis inducers, cell lines over-expressing Bcl-xL were prepared and tested according to Hockenberry et al. U.S. Pat. No. 7,241,804, hereby incorporated by reference in its entirety. Competitive binding of compounds with fluorescent antimycin A3, and competitive binding of compounds with BH3 peptide and Bcl-2. Competitive binding of compounds with BH-3 peptide were also measured using Bcl-xL as previously described. Id.
(§2) Cell lines were grown in RPMI 1640 medium (Gibco, Grand Island, N.Y.) supplemented with 5% fetal bovine serum (Hyclone, Logan, Utah). Also shown is the ratio of TAMH cells expressing Bcl-xL to those expressing A142L (WT:142L). The assay measures the potency of various compounds with respect to inducing apoptosis in these cells.
(§3) The compounds described in Example 2 were tested for their ability to inhibit Bcl-2 gain-of-function in TAMH cells, TAMH cells overexpressing […] (TAMH-Bcl-xL), TAMH cells transfected with Neo vector (Neo), TAMH cells over expressing a variant of Bcl-xL (A142L) using the methods of Example 1. 3-6.
(§4) The effects of the compounds described in Example 8 on TAMH cells, TAMH cells overexpressing Bcl-xL (TAMH-Bcl-xL), TAMH cells transfected with Neo vector (Neo), TAMH cells over expressing a variant of Bcl-xL (A142L) is shown in Table 8
(§5) The effects of the compounds described in Example 10 on TAMH cells, TAMH cells overexpressing Bcl-xL (TAMH-Bcl-xL), TAMH cells transfected with Neo vector (Neo), TAMH cells over expressing a variant of Bcl-xL (A142L) is shown in the following Table 10

[2] = test system: TAMH cells transfected with Neo vector (Neo); assay: Cytotoxicity / apoptosis induction in TAMH cells transfected with Neo vector; format: cell-based; settings: for IC50: read-out: IC50 TAMH Neo
Protocol: as §1, §2, §3, §4, §5

[3] = test system: TAMH cells over expressing a variant of Bcl-xL (A142L); assay: Cytotoxicity / apoptosis induction in TAMH cells over expressing Bcl-xL variant A142L; format: cell-based; settings: Table 4
Protocol: as §1, §2, §3

H23, NSCLC tumor = assay: Apoptosis induction against solid tumors in vitro, H23; format: cell-based
Protocol: (§6) The ability of compounds from Example 2 to induce apoptosis against solid tumors in vitro was tested. Four solid tumors were tested: OVCAR-3, an ovarian tumor; COLO205, a colonic tumor; HOP-62 and H23, both NSCLC tumors. The experimental compounds were compared to 2MeAA and to ABT-737, a clinical stage compound owned by Abbott Pharma.
(§7) The ability of compounds of Example 8 to induce apoptosis against solid tumors in vitro was tested. Four solid tumors were tested: OVCAR-3, an ovarian tumor; COLO205, a colonic tumor; HOP-62 and H23, both NSCLC tumors. The experimental compounds, […]

[4] = test system: OVCAR-3, an ovarian tumor; assay: Apoptosis induction against solid tumors in vitro, OVCAR-3; format: cell-based; settings: Homo sapiens
Protocol: as §6, §7

COLO205, a colonic tumor = assay: Apoptosis induction against solid tumors in vitro, COLO205; format: cell-based
Protocol: as §6, §7

HOP-62, NSCLC tumor = assay: Apoptosis induction against solid tumors in vitro, HOP-62; format: cell-based
Protocol: as §6, §7

[5] = Table 3, TAMH cells overexpressing Bcl-xL (Tabx2s), read-out: 2S EC50
[6] = Table 3, TAMH Neo cells, read-out: Neo EC50
[7] = Table 10, read-out: IC50 TAMH Bcl-XL
[8] = Table 5, TAMH cells overexpressing Bcl-xL (Tabx2s), read-out: 2S EC50
[9] = Table 5, TAMH Neo cells, read-out: Neo EC50

Cc1cc(C)c(O)c(CNCc2ccccc2)c1 [Compound 47911]
EC50 ([1]; Mus musculus, TAMH, Table 8, read-out: TAMH Bcl-xL): 4.1 µM | EC50 ([1]; Mus musculus, TAMH, Table 20, read-out: Bcl-XL): 4.1 µM | Neo/Bcl-xL ([1]; Table 8, selectivity ratio): 7.8 | Neo/Bcl-XL ([1]; Table 20): 7.8 | EC50 ([2]; Mus musculus, TAMH, Table 8, read-out: TANH Neo): 31.9 µM | EC50 ([2]; Mus musculus, TAMH, Table 20, read-out: Neo): 31.9 µM

Oc1c(Cl)cc(Cl)cc1/C=N/Nc1ccccn1 [Compound 0233]
Log P (Log P; Table 3): 3.190 | EC50 [1, 5]: 3.5 µM | EC50 [2, 6]: ≥ 50 µM

Oc1ccc(Cl)cc1Sc1cc(Cl)ccc1O [Compound 4112]
Fold Select. (Neo/Bcl-XL) ([1]; Table 10): 2.3 | IC50 [1, 7]: 2 µM | IC50 ([2]; Table 10): 4.7 µM

Cc1cc(O)c(Sc2c(O)cc(C)c(Cl)c2C)c(C)c1Cl [Compound 52168]
Fold Select. (Neo/Bcl-XL) ([1]; Table 10): 5.2 | IC50 [1, 7]: 1 µM | IC50 ([2]; Table 10): 5.2 µM

COc1cc(Br)cc(/C=N/Nc2ccc(C(F)(F)F)cc2)c1O [Compound 0333]
EC50 ([3]; TAMH A142L cells): 22.2 µM | WT:142L ([3]; ratio of TAMH cells expressing Bcl-xL to those expressing A142L): 8.2 | Log P (Log P; Table 3): 6.510 | EC50 [1, 5]: 2.2 µM | EC50 ([1]; Table 4, TAMH-Bcl-xL cells, read-out: Bcl-xL): 2.7 µM | Neo:Bcl ([1]; Table 4, ratio Neo to Bcl-xL cells): 9.2 | EC50 [2, 6]: 26.9 µM | EC50 ([2]; Table 4, TAMH Neo cells, read-out: Neo): > 25 µM

Oc1c(Br)cc(Cl)cc1/C=N/Nc1ccc(C(F)(F)F)cn1 [FH096]
EC50 (H23, NSCLC tumor; Homo sapiens, NCI-H23, Table 21): 5.6 µM | EC50 ([4]; Table 21): 4.2 µM | EC50 (COLO205, a colonic tumor; Homo sapiens, COLO 205, Table 21): > 25 µM | EC50 (HOP-62, NSCLC tumor; Homo sapiens, Table 21): 19.1 µM

Cc1c(Cl)c(C)c(Sc2c(C)c(Cl)c(C)c(Br)c2O)c(O)c1Br [Compound 9874]
Fold Select. (Neo/Bcl-XL) ([1]; Table 10): 2.8 | IC50 [1, 7]: 0.7 µM | IC50 ([2]; Table 10): 2 µM

Cc1c(Cl)cc(C(C)(C)C)c(O)c1Cc1c(C)c(Cl)cc(C(C)(C)C)c1O [Compound 5857]
Fold Select. (Neo/Bcl-XL) ([1]; Table 10): 2.8 | IC50 [1, 7]: 4.5 µM | IC50 ([2]; Table 10): 12.5 µM

Oc1ccc(Cl)cc1/C=N/Nc1ccccn1 [Compound 0229]
Log P (Log P; Table 3): 2.570 | EC50 [1, 5]: 2.4 µM | EC50 [2, 6]: ≥ 50 µM

Cc1cccc(Cc2ccc(Cc3cccc(C)c3)c(O)c2)c1 [Compound 0051]
Log P (Log P; Table 5): 6.18 | EC50 [1, 8]: 1.5 µM | EC50 [2, 9]: 15.4 µM

CN(C)CC[C@H](CSc1ccccc1)Nc1ccc(S(=O)(=O)NC(=O)c2ccc(N3CCN(Cc4ccccc4-c4ccc(Cl)cc4)CC3)cc2)cc1[N+](=O)[O-] [ABT-737, reference compound]
EC50 (H23, NSCLC tumor; Homo sapiens, NCI-H23, Table 7): > 25 µM | EC50 (H23, NSCLC tumor; Table 21): > 25 µM | EC50 ([4]; Table 7): 17 µM | EC50 (COLO205, a colonic tumor; Homo sapiens, COLO 205, Table 7): > 25 µM | EC50 (COLO205, a colonic tumor; Table 21): > 25 µM | EC50 (HOP-62, NSCLC tumor; Homo sapiens, Table 7): > 25 µM | EC50 (HOP-62, NSCLC tumor; Table 21): > 25 µM

CC(C)(C)c1cc(C(C)(C)c2ccccc2)cc(Cc2cc(C(C)(C)c3ccccc3)cc(C(C)(C)C)c2O)c1O [Compound 288938]
Fold Select. (Neo/Bcl-XL) ([1]; Table 10): 3.3 | IC50 [1, 7]: 28 µM | IC50 ([2]; Table 10): 93.1 µM

Cc1ccc(OC(=O)C(C)C)c(Cc2cc(C)cc(Cc3cc(C)ccc3OC(=O)C(C)C)c2O)c1 [Compound 0127]
Log P (Log P; Table 5): 8.31 | EC50 [1, 8]: 3.2 µM

O=C(/N=C/c1cc(Br)cc(Br)c1O)c1ccc(C(F)(F)F)cn1 [Compound 0298]
EC50 [1, 5]: 2.3 µM | EC50 [2, 6]: 13 µM

CCN(Cc1cc(Cl)cc(C)c1O)Cc1c(O)ccc2ccccc12 [Compound 88850]
Neo/Bcl-XL ([1]; Table 18): 2.7 | EC50 ([1]; Table 18, read-out: Bcl-XL): 4.5 µM | EC50 ([2]; Table 18, read-out: Neo): 12 µM

Oc1c(Br)cc(Cl)cc1/C=N/Nc1ccc(C(F)(F)F)cn1 [Compound 0275]
Log P (Log P; Table 3): 4.980 | EC50 [1, 5]: 1.4 µM | EC50 [2, 6]: 9.9 µM

Oc1c(CCl)cc(Cl)cc1Cc1cc(Cl)cc(Cc2cc(Cl)cc(CCl)c2O)c1O [Compound 48444]
Fold Select. (Neo/Bcl-xL) ([1]; Table 13): 9.3 | IC50 ([1]; Table 13, read-out: IC50 TAMH Bcl-xL): 1.3 µM | IC50 ([2]; Table 13): 12.1 µM

COc1ccc(Cl)cc1Cc1cc(Cl)cc(Cc2cc(Cl)ccc2O)c1OC [Compound 0088]
Log P (Log P; Table 5): 7.4 | EC50 [1, 8]: 0.6 µM | EC50 [2, 9]: 6.1 µM
